The record followed here is US11142515B2, “Pyrazolyl-ureas as kinase inhibitors” (RESPIVERT LIMITED, priority 2014, dated 2021).

One data set deals with T1, c-Src (Homo sapiens, UniProt P12931).
T1 construct: purchased Life Technologies
Nature of the data set: c-Src enzyme inhibition (Z-LYTE FRET). Conditions: Table 2A. In kind it is biochemical. As to the method:
(§1) The enzyme inhibitory activities of compounds disclosed herein were determined by FRET using synthetic peptides labelled with both donor and acceptor fluorophores (Z-LYTE, Life Technologies, Paisley, UK).
(§2) The relevant enzyme (1000 ng/mL, 1400 ng/mL or 2000 ng/mL respectively, 2.5 μL) was incubated with the test compound (either 40 μg/mL, 12 μg/mL, 4 μg/mL, 1.2 μg/mL, 0.4 μg/mL, 0.12 μg/mL, 0.04 μg/mL, 0.012 μg/mL, 0.004 μg/mL or 0.0012 μg/mL, 2.5 μL each) for 2 h at RT. The FRET peptides (8 μM, 2.5 μL), and appropriate ATP solutions (2.5 μL, 800 μM for c-Src, and 60 μM ATP for HCK and Syk) were then added to the enzyme/compound mixtures and incubated for 1 h at RT. Development reagent (protease, 5 μL) was added for 1 h prior to detection in a fluorescence microplate reader (EnVision, Perkin Elmer).
(§3) In all cases, the site-specific protease cleaves non-phosphorylated peptide only and eliminates the FRET signal. Phosphorylation levels of each reaction were calculated using the ratio of coumarin emission (donor) over fluorescein emission (acceptor), for which low ratios indicate high phosphorylation and high ratios indicate low phosphorylation levels.

A further data set deals with T2, Hck (Homo sapiens, UniProt P08631).
T2 construct: purchased Life Technologies
Nature of the data set: Hck enzyme inhibition (Z-LYTE FRET). It is filed as biochemical. Conditions: Table 2A. The method, then: as §1, §2, §3

The target of the next data set is T3, p38MAPKγ (MAPK12) (Homo sapiens, UniProt P53778).
T3 construct: purchased Life Technologies
T3 sequence (P53778 1-367): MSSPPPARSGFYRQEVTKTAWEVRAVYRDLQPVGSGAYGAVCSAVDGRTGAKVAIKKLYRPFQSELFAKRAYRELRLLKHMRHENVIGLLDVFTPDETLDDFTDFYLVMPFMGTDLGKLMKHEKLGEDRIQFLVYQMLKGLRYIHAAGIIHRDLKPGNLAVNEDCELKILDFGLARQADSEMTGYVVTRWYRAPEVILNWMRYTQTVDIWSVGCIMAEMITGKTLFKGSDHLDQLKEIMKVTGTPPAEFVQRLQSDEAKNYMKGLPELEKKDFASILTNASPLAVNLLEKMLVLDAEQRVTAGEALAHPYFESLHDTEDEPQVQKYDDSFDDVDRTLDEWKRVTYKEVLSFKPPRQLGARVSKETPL
Nature of the data set: p38 MAPKγ enzyme inhibition (Z-LYTE FRET). Conditions: Table 2A; read-out: IC50 Values for Enzyme Inhibition p38 MAPKγ. It is filed as biochemical. Summed up:
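Enzyme (added at 800 ng/mL) was preincubated 2 h at RT with compound (solutions of 40 to 0.0012 μg/mL), then FRET peptide (8 μM) and ATP (400 μM), both as added, were reacted 1 h at RT. Protease development followed for 1 h; phosphorylation was read as the coumarin/fluorescein emission ratio.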

For a further data set, the system named is d-U937 cells. Nature of the data set: Cell viability: MTT assay in differentiated U937 cells. In kind it is cell-based, human. Conditions: 10 μg/mL. The method in brief:
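Viability loss, calculated against 0.5% DMSO vehicle (gains reported negative), was measured by MTT reduction (1 h) and A550 after DMSO solubilisation. Compound exposure of d-U937 cells was 10 μg/mL final, for 24 h in 10% FCS or 4 h in 5% FCS RPMI1640.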
(Tetrazolium dyes change colour on reduction, which living cells bring about.)

Data set [1] concerns ICAM-1 expression in BEAS2B cells. Nature of the data set: Poly I:C-induced ICAM-1 expression in BEAS2B cells. In kind it is cell-based. Conditions: Homo sapiens, BEAS-2B, read-out: PolyIC/ICAM1 IC50 (BEAS2B). As to the method: Poly I:C was used in these studies as a simple, RNA virus mimic. Poly I:C-Oligofectamine mixture (2% Oligofectamine±1 μg/mL Poly I:C, 25 μL; Life Technologies and Invivogen Ltd., San Diego, Calif., respectively) was transfected into BEAS2B cells (human bronchial epithelial cells, ATCC). Cells were pre-incubated with final concentrations of test compounds for 2 h and the level of ICAM-1 expression on the cell surface was determined by cell-based ELISA. At a time point 18 h after poly I:C transfection, cells were fixed with 4% formaldehyde in PBS (100 μL) and then endogenous peroxidase was quenched by the addition of washing buffer (100 μL, 0.05% Tween in PBS: PBS-Tween) containing 0.1% sodium azide and 1% hydrogen peroxide. Cells were washed with wash-buffer (3×200 μL). After blocking the wells with 5% milk in PBS-Tween (100 μL) for 1 h, the cells were incubated with anti-human ICAM-1 antibody (50 μL; Cell Signaling Technology, Danvers, Mass.) in 1% BSA PBS overnight at 4° C.
The cells were washed with PBS-Tween (3×200 μL) and incubated with the secondary antibody (100 μL; HRP-conjugated anti-rabbit IgG, Dako Ltd., Glostrup, Denmark). The cells were then incubated with of substrate (50 μL) for 2-20 min, followed by the addition of stop solution (50 μL, 1N H2SO4). The ICAM-1 signal was detected by reading the absorbance at 450 nm against a reference wavelength of 655 nm using a spectrophotometer. The cells ware then washed with PBS-Tween (3×200 μL) and total cell numbers in each well were determined by reading absorbance at 595 nm after Crystal Violet staining (50 μL of a 2% solution in PBS) and elution by 1% SDS solution (100 μL) in PBS. The measured OD 450-655 readings were corrected for cell number by dividing with the OD595 reading in each well. The inhibition of ICAM-1 expression was calculated at each concentration of test compound by comparison with vehicle control.

The target in a further data set is T4, Syk (Homo sapiens, UniProt P43405).
T4 construct: purchased Life Technologies
Nature of the data set: Syk enzyme inhibition (Z-LYTE FRET). In kind it is biochemical. Conditions: Table 2A. Summed up: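 Z-LYTE readout: coumarin-to-fluorescein ratio after 1 h protease cleavage of unphosphorylated peptide. Kinase reactions ran 1 h at RT with ATP stock at 800 μM (c-Src) or 60 μM (Hck, Syk), following 2 h compound preincubation over 0.0012–40 μg/mL; enzyme stocks 1000/1400/2000 ng/mL.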

T1 sequence (P12931 whole entry): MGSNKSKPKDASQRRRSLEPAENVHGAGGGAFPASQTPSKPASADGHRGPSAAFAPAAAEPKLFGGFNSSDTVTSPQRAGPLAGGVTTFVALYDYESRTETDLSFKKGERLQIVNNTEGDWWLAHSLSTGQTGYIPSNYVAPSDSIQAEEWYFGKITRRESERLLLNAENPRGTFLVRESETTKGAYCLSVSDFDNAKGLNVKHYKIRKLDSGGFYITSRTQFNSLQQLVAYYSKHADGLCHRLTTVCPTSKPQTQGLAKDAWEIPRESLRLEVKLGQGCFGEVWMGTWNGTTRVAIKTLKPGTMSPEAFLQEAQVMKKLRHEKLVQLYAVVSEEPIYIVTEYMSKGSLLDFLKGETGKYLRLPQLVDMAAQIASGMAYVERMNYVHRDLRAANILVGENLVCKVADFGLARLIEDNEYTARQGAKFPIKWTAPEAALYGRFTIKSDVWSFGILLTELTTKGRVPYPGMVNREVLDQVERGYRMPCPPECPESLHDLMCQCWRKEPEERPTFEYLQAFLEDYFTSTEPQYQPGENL
T2 sequence (P08631 22-526): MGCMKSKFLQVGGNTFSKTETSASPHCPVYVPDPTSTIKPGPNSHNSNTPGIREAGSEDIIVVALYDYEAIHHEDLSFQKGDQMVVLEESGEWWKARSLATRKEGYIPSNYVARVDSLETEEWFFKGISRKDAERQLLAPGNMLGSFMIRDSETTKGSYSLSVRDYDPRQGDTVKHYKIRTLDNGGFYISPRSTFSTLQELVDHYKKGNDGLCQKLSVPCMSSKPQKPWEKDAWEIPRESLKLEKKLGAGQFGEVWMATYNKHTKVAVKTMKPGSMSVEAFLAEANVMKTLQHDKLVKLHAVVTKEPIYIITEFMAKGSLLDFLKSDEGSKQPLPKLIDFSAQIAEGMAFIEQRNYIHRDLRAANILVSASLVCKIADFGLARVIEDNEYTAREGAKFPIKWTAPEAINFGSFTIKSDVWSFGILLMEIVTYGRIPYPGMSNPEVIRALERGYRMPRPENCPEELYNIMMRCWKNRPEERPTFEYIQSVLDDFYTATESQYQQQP

Take `Cc1ccc(-n2nc(C(C)(C)C)cc2NC(=O)Nc2ccc(OCc3ccnc(Nc4cncc(N(C)C)n4)c3)c3ccccc23)cc1` [Example 14]: the IC50 is 29 nM against c-Src; 6 nM against Hck; 237 nM on p38MAPKγ (MAPK12); 64.3 nM in data set [1]; over 15600 nM against Syk. Besides, in the data set with d-U937 cells, the “MTT Assay Cell viability at time point indicated in d-U937 Cells, 4 h” value (“MTT Assay Cell viability … in d-U937 Cells, 4 h” for short) is “− (−ve and +ve indicate the value is below and above, respectively, the no significant effect threshold defined as 30% inhibition at 10 μg/mL at the time point indicated)”. Moreover, the “MTT Assay Cell viability at time point indicated in d-U937 Cells, 24 h” value (“MTT Assay Cell viability … 24 h” for short) in the data set with d-U937 cells is “− (−ve and +ve indicate the value is below and above, respectively, the no significant effect threshold defined as 30% inhibition at 10 μg/mL at the time point indicated)”.
Regarding `Cc1ccc(-n2nc(C(C)(C)C)cc2NC(=O)Nc2ccc(OCc3ccnc(Nc4cncc(C5CC5)n4)c3)c3ccccc23)cc1` [Example 15], the IC50 at c-Src was 34 nM; against Hck, 15 nM; on p38MAPKγ (MAPK12), 160 nM; in data set [1], 15.7 nM; at Syk, over 15700 nM. The “MTT Assay Cell viability … in d-U937 Cells, 4 h” value in the data set with d-U937 cells was “− (−ve and +ve indicate the value is below and above, respectively, the no significant effect threshold defined as 30% inhibition at 10 μg/mL at the time point indicated)”. Besides, the “MTT Assay Cell viability … 24 h” value in the data set with d-U937 cells is “− (−ve and +ve indicate the value is below and above, respectively, the no significant effect threshold defined as 30% inhibition at 10 μg/mL at the time point indicated)”.
On to `Cc1ccc(-n2nc(C(C)(C)C)cc2NC(=O)Nc2ccc(OCc3ccnc(Nc4cnc(C5CC5)cn4)c3)c3ccccc23)cc1` [Example 16], for which the IC50 against c-Src is 2520 nM; against Hck it was 355 nM; at p38MAPKγ (MAPK12), over 7150 nM; in data set [1], over 1560 nM; against Syk, over 15700 nM. In the data set with d-U937 cells, the “MTT Assay Cell viability … in d-U937 Cells, 4 h” value is “− (−ve and +ve indicate the value is below and above, respectively, the no significant effect threshold defined as 30% inhibition at 10 μg/mL at the time point indicated)”. For the same molecule, the “MTT Assay Cell viability … 24 h” value in the data set with d-U937 cells was “− (−ve and +ve indicate the value is below and above, respectively, the no significant effect threshold defined as 30% inhibition at 10 μg/mL at the time point indicated)”.
For `Cc1ccc(-n2nc(C(C)(C)C)cc2NC(=O)Nc2ccc(OCc3ccnc(Nc4cnc(C(=O)NCCN5CCOCC5)cn4)c3)c3ccccc23)cc1` [Example 17], the IC50 against c-Src is 34 nM; against Hck it was 17 nM; at p38MAPKγ (MAPK12) it was 74 nM; in data set [1], 433 nM; at Syk, over 13200 nM. Further, in the data set on d-U937 cells, the “MTT Assay Cell viability … in d-U937 Cells, 4 h” value was “− (−ve and +ve indicate the value is below and above, respectively, the no significant effect threshold defined as 30% inhibition at 10 μg/mL at the time point indicated)”. The “MTT Assay Cell viability … 24 h” value in the data set on d-U937 cells was “− (−ve and +ve indicate the value is below and above, respectively, the no significant effect threshold defined as 30% inhibition at 10 μg/mL at the time point indicated)”.
For `COc1cncc(Nc2cc(COc3ccc(NC(=O)Nc4cc(C(C)(C)C)nn4-c4ccc(C)cc4)c4ccccc34)ccn2)n1` [Example 18], the IC50 on c-Src was 196 nM; against Hck it was 41 nM; at p38MAPKγ (MAPK12) it was 104 nM; in data set [1], 97.8 nM; on Syk, over 15900 nM. Besides, the “MTT Assay Cell viability … in d-U937 Cells, 4 h” value in the data set on d-U937 cells is “− (−ve and +ve indicate the value is below and above, respectively, the no significant effect threshold defined as 30% inhibition at 10 μg/mL at the time point indicated)”. The “MTT Assay Cell viability … 24 h” value with d-U937 cells was “+ (−ve and +ve indicate the value is below and above, respectively, the no significant effect threshold defined as 30% inhibition at 10 μg/mL at the time point indicated)”.
For `Cc1ccc(-n2nc(C(C)(C)C)cc2NC(=O)Nc2ccc(OCc3ccnc(Nc4cnc(C)cn4)c3)c3ccccc23)cc1` [Example 19], the IC50 on c-Src was 151 nM; against Hck, 53 nM; at p38MAPKγ (MAPK12), 229 nM; in data set [1] it was 340 nM; against Syk, over 16300 nM. Further, the “MTT Assay Cell viability … in d-U937 Cells, 4 h” value in the data set with d-U937 cells was “− (−ve and +ve indicate the value is below and above, respectively, the no significant effect threshold defined as 30% inhibition at 10 μg/mL at the time point indicated)”. The “MTT Assay Cell viability … 24 h” value in the data set with d-U937 cells is “− (−ve and +ve indicate the value is below and above, respectively, the no significant effect threshold defined as 30% inhibition at 10 μg/mL at the time point indicated)”.
Regarding `Cc1ccc(-n2nc(C(C)(C)C)cc2NC(=O)Nc2ccc(OCc3ccnc(Nc4cncc(C)n4)c3)c3ccccc23)cc1` [Example 20], the IC50 at c-Src was 150 nM; against Hck it was 52 nM; on p38MAPKγ (MAPK12) it was 62 nM; in data set [1], 152 nM; on Syk, over 16300 nM. Besides, the “MTT Assay Cell viability … in d-U937 Cells, 4 h” value in the data set on d-U937 cells is “− (−ve and +ve indicate the value is below and above, respectively, the no significant effect threshold defined as 30% inhibition at 10 μg/mL at the time point indicated)”. The “MTT Assay Cell viability … 24 h” value in the data set with d-U937 cells is “− (−ve and +ve indicate the value is below and above, respectively, the no significant effect threshold defined as 30% inhibition at 10 μg/mL at the time point indicated)”.
Regarding `Cc1ccc(-n2nc(C(C)(C)C)cc2NC(=O)Nc2ccc(OCc3ccnc(Nc4cncc(CO)n4)c3)c3ccccc23)cc1` [Example 21], the IC50 was 33 nM at c-Src; 12 nM at Hck; 31 nM on p38MAPKγ (MAPK12); 76.5 nM in data set [1]; over 15900 nM at Syk. In addition, in the data set with d-U937 cells, the “MTT Assay Cell viability … in d-U937 Cells, 4 h” value was “− (−ve and +ve indicate the value is below and above, respectively, the no significant effect threshold defined as 30% inhibition at 10 μg/mL at the time point indicated)”. The “MTT Assay Cell viability … 24 h” value in the data set on d-U937 cells is “− (−ve and +ve indicate the value is below and above, respectively, the no significant effect threshold defined as 30% inhibition at 10 μg/mL at the time point indicated)”.
